# Data from ChEMBL document CHEMBL4828734, “Discovery of High-Affinity Inhibitors of the BPTF Bromodomain” (J Med Chem, 2021).
# The source made the active and inactive calls. The rule behind the calls is not given here.
# Tests used:
# [1] = molecular target: T1, Nucleosome-remodeling factor subunit BPTF (Homo sapiens, UniProt Q12830); assay: Binding affinity to BPTF (unknown origin)
# [2] = molecular target: T1, Nucleosome-remodeling factor subunit BPTF; assay: Inhibition of N-terminal GST-tagged human BPTF (2914 to 3037 residues) expressed in Escherichia coli BL21-CodonPlus (DE3) cells by HTRF assay
# [3] = molecular target: T1, Nucleosome-remodeling factor subunit BPTF; assay: Inhibition of BPTF in human MV4-11 cells assessed as reduction in bcl2 mRNA level incubated for 24 hrs by RT-PCR analysis; type: cell-based; settings: dose 2.5-20 µM
# [4] = molecular target: Bromodomain-containing protein 4 (Homo sapiens) (UniProt O60885); assay: Binding affinity to BRD4-BD2 (unknown origin) assessed as change in melting temperature at 50 uM by thermal shift assay
# [5] = molecular target: T1, Nucleosome-remodeling factor subunit BPTF; assay: Binding affinity to N-terminal GST-tagged human BPTF (2914 to 3037 residues) expressed in Escherichia coli BL21-CodonPlus (DE3) cells by SPR assay
# [6] = molecular target: CREB-binding protein (Homo sapiens) (UniProt Q92793); assay: Inhibition of CBP-BRD (unknown origin) at 1 uM using acetylated H4 as substrate incubated for 1 hr by AlphaScreen assay
# [7] = molecular target: T1, Nucleosome-remodeling factor subunit BPTF; assay: Binding affinity to N-terminal GST-tagged human BPTF (2914 to 3037 residues) expressed in Escherichia coli BL21-CodonPlus (DE3) cells assessed as change in melting temperature at 50 uM by thermal shift assay
# [8] = molecular target: T1, Nucleosome-remodeling factor subunit BPTF; assay: Inhibition of BPTF in human MV4-11 cells assessed as reduction in c-Myc mRNA level incubated for 24 hrs by RT-PCR analysis; type: cell-based; settings: dose 2.5-20 µM
# [9] = molecular target: Bromodomain-containing protein 2 (Homo sapiens) (UniProt P25440); assay: Inhibition of BRD2-BD1 (unknown origin) at 1 uM using acetylated H4 as substrate incubated for 1 hr by AlphaScreen assay
# Chain of Bromodomain-containing protein 2 (Homo sapiens) (P25440 whole entry, looked up, the tested form may be a part): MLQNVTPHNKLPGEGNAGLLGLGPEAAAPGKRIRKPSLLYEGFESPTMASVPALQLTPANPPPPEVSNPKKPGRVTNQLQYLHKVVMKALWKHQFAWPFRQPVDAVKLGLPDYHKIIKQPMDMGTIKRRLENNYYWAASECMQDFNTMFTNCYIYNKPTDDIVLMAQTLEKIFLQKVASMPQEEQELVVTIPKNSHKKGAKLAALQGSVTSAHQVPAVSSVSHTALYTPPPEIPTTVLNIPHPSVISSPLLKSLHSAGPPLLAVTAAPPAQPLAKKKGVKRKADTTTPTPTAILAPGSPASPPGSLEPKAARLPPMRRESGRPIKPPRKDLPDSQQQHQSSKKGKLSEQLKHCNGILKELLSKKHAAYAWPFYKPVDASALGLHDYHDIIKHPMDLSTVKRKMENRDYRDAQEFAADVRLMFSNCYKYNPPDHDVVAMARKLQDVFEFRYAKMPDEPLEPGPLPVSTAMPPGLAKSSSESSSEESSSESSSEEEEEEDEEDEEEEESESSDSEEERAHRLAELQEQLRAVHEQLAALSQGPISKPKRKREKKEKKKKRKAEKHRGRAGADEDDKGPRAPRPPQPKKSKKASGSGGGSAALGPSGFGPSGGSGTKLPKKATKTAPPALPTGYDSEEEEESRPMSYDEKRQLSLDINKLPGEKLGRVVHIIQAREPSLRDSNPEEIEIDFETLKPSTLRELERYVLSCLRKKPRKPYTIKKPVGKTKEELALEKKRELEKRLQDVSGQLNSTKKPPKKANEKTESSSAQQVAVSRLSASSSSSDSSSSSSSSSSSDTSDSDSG
# [10] = molecular target: Histone acetyltransferase p300 (Homo sapiens) (UniProt Q09472); assay: Inhibition of p300-BRD (unknown origin) at 1 uM using acetylated H4 as substrate incubated for 1 hr by AlphaScreen assay
# Chain of Histone acetyltransferase p300 (Homo sapiens) (Q09472 whole entry, the tested form may be a part): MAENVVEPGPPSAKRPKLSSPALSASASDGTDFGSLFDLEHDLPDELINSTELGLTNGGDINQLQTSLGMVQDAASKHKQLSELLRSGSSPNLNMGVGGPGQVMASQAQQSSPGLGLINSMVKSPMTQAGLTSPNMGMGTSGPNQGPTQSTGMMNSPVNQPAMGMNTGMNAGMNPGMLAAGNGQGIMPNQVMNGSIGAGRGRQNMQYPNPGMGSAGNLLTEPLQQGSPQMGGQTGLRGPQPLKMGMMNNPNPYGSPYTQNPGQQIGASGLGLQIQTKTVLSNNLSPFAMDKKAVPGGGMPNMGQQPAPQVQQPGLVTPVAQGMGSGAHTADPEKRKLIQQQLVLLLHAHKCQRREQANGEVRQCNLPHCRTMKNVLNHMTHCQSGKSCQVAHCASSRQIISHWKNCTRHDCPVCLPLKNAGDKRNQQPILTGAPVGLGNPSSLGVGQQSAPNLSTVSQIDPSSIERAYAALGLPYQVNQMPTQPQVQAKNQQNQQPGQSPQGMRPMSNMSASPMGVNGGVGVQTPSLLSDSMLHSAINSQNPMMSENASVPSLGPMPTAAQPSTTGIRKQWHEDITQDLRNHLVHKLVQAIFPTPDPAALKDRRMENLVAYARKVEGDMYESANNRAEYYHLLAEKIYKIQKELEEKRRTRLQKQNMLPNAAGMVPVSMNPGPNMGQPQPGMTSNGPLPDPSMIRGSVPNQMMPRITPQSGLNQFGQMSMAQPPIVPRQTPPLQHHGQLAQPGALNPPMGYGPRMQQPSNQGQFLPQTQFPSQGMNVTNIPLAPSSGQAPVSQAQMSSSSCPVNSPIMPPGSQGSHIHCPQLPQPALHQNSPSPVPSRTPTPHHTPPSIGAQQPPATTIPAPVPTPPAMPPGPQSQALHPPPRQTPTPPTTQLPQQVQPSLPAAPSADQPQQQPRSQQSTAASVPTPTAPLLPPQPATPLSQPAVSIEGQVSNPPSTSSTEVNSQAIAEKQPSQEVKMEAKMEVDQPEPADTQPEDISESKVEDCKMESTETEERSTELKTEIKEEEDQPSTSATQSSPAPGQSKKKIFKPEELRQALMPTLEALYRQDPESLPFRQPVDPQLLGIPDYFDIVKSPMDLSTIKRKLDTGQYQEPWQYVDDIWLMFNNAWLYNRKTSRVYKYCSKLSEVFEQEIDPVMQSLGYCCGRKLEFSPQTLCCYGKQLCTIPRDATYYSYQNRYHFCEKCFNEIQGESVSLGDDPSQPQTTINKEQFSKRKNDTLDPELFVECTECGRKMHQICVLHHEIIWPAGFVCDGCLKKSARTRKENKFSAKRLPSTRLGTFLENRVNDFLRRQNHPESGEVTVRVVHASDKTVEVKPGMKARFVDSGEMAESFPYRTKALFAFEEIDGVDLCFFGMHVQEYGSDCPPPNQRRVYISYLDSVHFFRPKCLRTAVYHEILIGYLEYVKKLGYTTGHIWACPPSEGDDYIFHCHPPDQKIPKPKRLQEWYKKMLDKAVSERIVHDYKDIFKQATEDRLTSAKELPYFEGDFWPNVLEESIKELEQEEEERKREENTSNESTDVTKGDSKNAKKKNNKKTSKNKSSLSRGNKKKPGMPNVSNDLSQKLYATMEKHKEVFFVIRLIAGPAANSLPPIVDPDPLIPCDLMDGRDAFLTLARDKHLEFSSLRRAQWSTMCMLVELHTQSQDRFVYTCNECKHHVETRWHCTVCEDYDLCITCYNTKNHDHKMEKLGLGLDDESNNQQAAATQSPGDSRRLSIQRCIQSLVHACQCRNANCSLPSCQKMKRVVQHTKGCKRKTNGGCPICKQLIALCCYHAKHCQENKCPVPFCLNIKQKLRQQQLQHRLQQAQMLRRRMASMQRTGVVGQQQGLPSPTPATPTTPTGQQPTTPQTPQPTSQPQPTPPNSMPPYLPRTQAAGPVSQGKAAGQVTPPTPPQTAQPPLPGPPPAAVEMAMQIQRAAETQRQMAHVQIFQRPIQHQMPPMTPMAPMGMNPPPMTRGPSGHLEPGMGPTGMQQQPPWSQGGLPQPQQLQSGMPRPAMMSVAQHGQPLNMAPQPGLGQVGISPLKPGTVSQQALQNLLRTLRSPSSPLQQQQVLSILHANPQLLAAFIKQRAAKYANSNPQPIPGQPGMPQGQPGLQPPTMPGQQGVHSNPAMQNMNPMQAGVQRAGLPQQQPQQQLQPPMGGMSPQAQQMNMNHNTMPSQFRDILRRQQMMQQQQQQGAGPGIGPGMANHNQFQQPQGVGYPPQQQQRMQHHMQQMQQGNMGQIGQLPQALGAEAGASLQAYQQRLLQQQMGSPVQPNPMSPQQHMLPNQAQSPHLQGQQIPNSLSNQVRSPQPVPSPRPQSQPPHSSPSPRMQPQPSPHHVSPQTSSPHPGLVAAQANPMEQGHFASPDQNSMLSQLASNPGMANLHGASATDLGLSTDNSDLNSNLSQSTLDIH
# MV4-11 [11] = assay: Induction of cell cycle arrest in human MV4-11 cells assessed as accumulation at G1 phase after 24 hrs by propidium iodide staining based flow cytometry analysis; type: functional; settings: dose 5-20 µM
# MV4-11 [12] = assay: Induction of cell cycle arrest in human MV4-11 cells assessed as accumulation at S phase after 24 hrs by propidium iodide staining based flow cytometry analysis; type: functional
# MV4-11 [13] = assay: Antiproliferative activity against human MC4-11 cells assessed as reduction in cell viability after 5 days by Celltiter-Glo assay; settings: MV4-11, 120 h
# [14] = molecular target: Bromodomain-containing protein 2 (Homo sapiens) (UniProt P25440); assay: Inhibition of BRD2-BD2 (unknown origin) at 1 uM using acetylated H4 as substrate incubated for 1 hr by AlphaScreen assay
# [15] = molecular target: SWI/SNF-related matrix-associated actin-dependent regulator of chromatin subfamily A member 2 (Homo sapiens) (UniProt P51531); assay: Binding affinity to SMARCA2-BRD (unknown origin) assessed as change in melting temperature at 50 uM by thermal shift assay
# Chain of SWI/SNF-related matrix-associated actin-dependent regulator of chromatin subfamily A member 2 (Homo sapiens) (P51531 whole entry): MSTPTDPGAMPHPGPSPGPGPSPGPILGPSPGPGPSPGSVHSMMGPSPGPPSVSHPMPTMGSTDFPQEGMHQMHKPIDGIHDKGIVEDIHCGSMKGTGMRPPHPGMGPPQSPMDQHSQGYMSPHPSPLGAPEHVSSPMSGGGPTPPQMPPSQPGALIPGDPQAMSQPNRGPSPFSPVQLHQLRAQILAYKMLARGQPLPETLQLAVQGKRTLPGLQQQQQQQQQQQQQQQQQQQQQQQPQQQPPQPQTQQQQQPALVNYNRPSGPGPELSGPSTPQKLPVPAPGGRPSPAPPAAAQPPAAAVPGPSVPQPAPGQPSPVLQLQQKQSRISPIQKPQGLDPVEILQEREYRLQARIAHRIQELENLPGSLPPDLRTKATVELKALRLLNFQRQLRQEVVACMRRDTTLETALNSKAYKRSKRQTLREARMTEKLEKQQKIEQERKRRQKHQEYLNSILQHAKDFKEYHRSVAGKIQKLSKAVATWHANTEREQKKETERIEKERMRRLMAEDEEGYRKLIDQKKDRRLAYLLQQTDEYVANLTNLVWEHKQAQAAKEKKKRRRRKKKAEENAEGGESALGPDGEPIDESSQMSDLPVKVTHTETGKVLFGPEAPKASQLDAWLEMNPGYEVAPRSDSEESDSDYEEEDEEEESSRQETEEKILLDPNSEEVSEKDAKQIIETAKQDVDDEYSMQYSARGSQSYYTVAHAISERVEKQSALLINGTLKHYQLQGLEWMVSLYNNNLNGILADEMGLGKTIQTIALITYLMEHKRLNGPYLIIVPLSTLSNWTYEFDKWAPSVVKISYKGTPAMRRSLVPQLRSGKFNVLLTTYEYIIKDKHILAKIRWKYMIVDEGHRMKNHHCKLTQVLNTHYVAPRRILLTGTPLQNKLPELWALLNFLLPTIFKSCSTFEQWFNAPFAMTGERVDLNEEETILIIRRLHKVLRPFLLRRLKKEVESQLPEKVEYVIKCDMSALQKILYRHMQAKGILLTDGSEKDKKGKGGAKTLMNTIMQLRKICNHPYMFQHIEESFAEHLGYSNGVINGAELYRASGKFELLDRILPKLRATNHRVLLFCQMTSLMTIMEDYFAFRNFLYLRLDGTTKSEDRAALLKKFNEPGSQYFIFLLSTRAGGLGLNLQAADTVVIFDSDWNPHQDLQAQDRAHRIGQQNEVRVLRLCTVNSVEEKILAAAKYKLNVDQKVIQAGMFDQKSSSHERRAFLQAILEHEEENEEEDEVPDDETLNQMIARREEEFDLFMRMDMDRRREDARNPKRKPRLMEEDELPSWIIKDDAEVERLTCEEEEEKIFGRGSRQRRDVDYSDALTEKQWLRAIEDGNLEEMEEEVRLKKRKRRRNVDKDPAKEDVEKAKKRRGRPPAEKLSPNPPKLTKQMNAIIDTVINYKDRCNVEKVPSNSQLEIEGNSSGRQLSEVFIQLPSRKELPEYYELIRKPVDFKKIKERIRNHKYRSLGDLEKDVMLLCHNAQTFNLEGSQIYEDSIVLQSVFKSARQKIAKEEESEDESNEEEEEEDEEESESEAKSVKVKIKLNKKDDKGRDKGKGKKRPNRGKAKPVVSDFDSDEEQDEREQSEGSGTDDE
# [16] = molecular target: SWI/SNF-related matrix-associated actin-dependent regulator of chromatin subfamily A member 2 (Homo sapiens) (UniProt P51531); assay: Inhibition of SMARCA2-BRD (unknown origin) at 1 uM using acetylated H4 as substrate incubated for 1 hr by AlphaScreen assay
# [17] = molecular target: Bromodomain-containing protein 4 (Homo sapiens) (UniProt O60885); assay: Binding affinity to BRD4-BD1 (unknown origin) assessed as change in melting temperature at 50 uM by thermal shift assay
# HUVEC = assay: Cytotoxicity against HUVEC assessed as reduction in cell viability at 100 uM after 3 days by Celltiter-Glo assay; type: cell-based; settings: human, 72 h, time 3 day
# [18] = molecular target: Bromodomain-containing protein 2 (Homo sapiens) (UniProt P25440); assay: Binding affinity to BRD2-BD1 (unknown origin) assessed as change in melting temperature at 50 uM by thermal shift assay
# [19] = molecular target: T1, Nucleosome-remodeling factor subunit BPTF; assay: Binding affinity to N-terminal GST-tagged human BPTF (2914 to 3037 residues) expressed in Escherichia coli BL21-CodonPlus (DE3) cells assessed as change in melting temperature at 100 uM by thermal shift assay
# MV4-11 [20] = assay: Induction of apoptosis in human MV4-11 cells at 5 to 20 uM after 24 hrs by Annexin V-FITC and propidium iodide staining based flow cytometry analysis; type: functional, cell-based; settings: dose 5-20 µM
# [21] = molecular target: Bromodomain-containing protein 2 (Homo sapiens) (UniProt P25440); assay: Binding affinity to BRD2-BD2 (unknown origin) assessed as change in melting temperature at 50 uM by thermal shift assay
# MRC5 = assay: Cytotoxicity against human MRC5 assessed as reduction in cell viability at 100 uM after 3 days by Celltiter-Glo assay; type: cell-based; settings: mrc5, 72 h, time 3 day
# [22] = molecular target: T1, Nucleosome-remodeling factor subunit BPTF; assay: Inhibition of BPTF in human MV4-11 cells assessed as reduction in CDK6 mRNA level incubated for 24 hrs by RT-PCR analysis; type: cell-based; settings: dose 2.5-20 µM
# [23] = molecular target: Bromodomain-containing protein 4 (Homo sapiens) (UniProt O60885); assay: Inhibition of BRD4-BD2 (unknown origin) at 1 uM using acetylated H4 as substrate incubated for 1 hr by AlphaScreen assay
# [24] = molecular target: Histone acetyltransferase p300 (Homo sapiens) (UniProt Q09472); assay: Binding affinity to p300-BRD (unknown origin) assessed as change in melting temperature at 50 uM by thermal shift assay
# [25] = molecular target: T1, Nucleosome-remodeling factor subunit BPTF; assay: Binding affinity to N-terminal GST-tagged human BPTF (2914 to 3037 residues) expressed in Escherichia coli BL21-CodonPlus (DE3) cells at 200 uM by CPMG NMR spectroscopy
# [26] = molecular target: T1, Nucleosome-remodeling factor subunit BPTF; assay: Binding affinity to N-terminal GST-tagged human BPTF (2914 to 3037 residues) expressed in Escherichia coli BL21-CodonPlus (DE3) cells assessed as change in melting temperature at 25 uM by thermal shift assay
# [27] = molecular target: CREB-binding protein (Homo sapiens) (UniProt Q92793); assay: Binding affinity to CBP-BRD (unknown origin) assessed as change in melting temperature at 50 uM by thermal shift assay
# MV4-11 [28] = assay: Downregulation of c-Myc protein expression in human MV4-11 cells after 24 hrs by Western blot analysis; type: functional, cell-based; settings: dose 0.6-50 µM
# [29] = molecular target: T1, Nucleosome-remodeling factor subunit BPTF; assay: Displacement of Halo-tagged histone H4 from NanoLuc-tagged BPTF (unknown origin) expressed in HEK293 cells by NanoBRET assay; type: cell-based
# [30] = molecular target: Bromodomain-containing protein 4 (Homo sapiens) (UniProt O60885); assay: Inhibition of BRD4-BD1 (unknown origin) at 1 uM using acetylated H4 as substrate incubated for 1 hr by AlphaScreen assay
# [31] = molecular target: T1, Nucleosome-remodeling factor subunit BPTF; assay: Inhibition of N-terminal GST-tagged human BPTF (2914 to 3037 residues) expressed in Escherichia coli BL21-CodonPlus (DE3) cells at 1 uM incubated for 1 hr by AlphaScreen assay relative to control
# [32] = molecular target: T1, Nucleosome-remodeling factor subunit BPTF; assay: Binding affinity to N-terminal GST-tagged human BPTF (2914 to 3037 residues) expressed in Escherichia coli BL21-CodonPlus (DE3) cells at 200 uM by STD NMR spectroscopy
# [33] = molecular target: T1, Nucleosome-remodeling factor subunit BPTF; assay: Binding affinity to N-terminal GST-tagged human BPTF (2914 to 3037 residues) expressed in Escherichia coli BL21-CodonPlus (DE3) cells assessed as change in melting temperature at 12.5 uM by thermal shift assay
# [34] = molecular target: T1, Nucleosome-remodeling factor subunit BPTF
# Description: Binding affinity to BPTF (unknown origin) expressed in Escherichia coli BL21 (DE3) cells by SPR analysis
compound,measurement,setting,value
CCOc1c(I)cc(C(N)=O)cc1OC,Kd,[1],17900 nM
CNc1cc(-c2ccc3ccn(CCCN(C)C)c3c2)nc(S(C)(=O)=O)n1,IC50,[2],2100 nM
CCCNc1cc(-c2ccc3c(c2)c(C)cn3CCCN(C)C)nc(S(C)(=O)=O)n1,IC50,[2],58.6 nM
Cc1cn(CCCN(C)C)c2ccc(-c3nc(S(C)(=O)=O)nc4[nH]ccc34)cc12,IC50,[2],157 nM
CN(C)CCCn1ccc2cc(-c3cc(N(C)C)nc(S(C)(=O)=O)n3)ccc21,IC50,[2],14700 nM
CCC(C)Nc1cc(-c2ccc3c(ccn3CCCN(C)C)c2)nc(S(C)(=O)=O)n1 (stereo not drawn),IC50,[2],288 nM
CCCCNc1cc(-c2ccc3c(ccn3CCCN(C)C)c2)nc(S(C)(=O)=O)n1,IC50,[2],114 nM
CN(C)CCCn1ccc2cc(-c3nc(S(C)(=O)=O)nc4[nH]ccc34)ccc21,inhibition,[3],Dose-Dependent Effect
same,Activity,[4],inactive
same,Kd,[5],20.7 nM
same,inhibition,[6],inactive
same,ΔTm,[7],6.5 °C
same,inhibition,[8],Dose-Dependent Effect
same,inhibition,[9],inactive
same,inhibition,[10],inactive
same,Activity,MV4-11 [11],Dose-Dependent Effect
same,Activity,MV4-11 [12],Dose-Dependent Effect
same,IC50,MV4-11 [13],890 nM
same,inhibition,[14],inactive
same,IC50,[2],26.9 nM
same,Activity,[15],inactive
same,inhibition,[16],inactive
same,Activity,[17],inactive
same,Activity,HUVEC,Non-Toxic
same,Activity,[18],inactive
same,ΔTm,[19],7.66 °C
same,Activity,MV4-11 [20],Active
same,Activity,[21],inactive
same,Activity,MRC5,Non-Toxic
same,inhibition,[22],Dose-Dependent Effect
same,inhibition,[23],inactive
same,Activity,[24],inactive
same,Activity,[25],Active
same,ΔTm,[26],5.02 °C
same,Activity,[27],inactive
same,Activity,MV4-11 [28],Dose-Dependent Effect
same,EC50,[29],120 nM
same,inhibition,[30],inactive
same,inhibition,[31],100%
same,Activity,[32],Active
CCCNc1cc(-c2ccc3c(ccn3CCCN(C)C)c2)nc(S(C)(=O)=O)n1,Kd,[5],49600 nM
same,ΔTm,[7],7.97 °C
same,IC50,[2],16 nM
same,ΔTm,[19],8.9 °C
same,ΔTm,[26],6.12 °C
same,ΔTm,[33],3.87 °C
CNc1cc(-c2ccc3c(ccn3CCCN(C)C)c2)nc([S+](C)[O-])n1 (stereo not drawn),IC50,[2],59.3 nM
CCCNc1cc(-c2cc(OC)c3c(ccn3CCCN(C)C)c2)nc(S(C)(=O)=O)n1,IC50,[2],63.8 nM
CNc1cc(-c2ccc3[nH]ccc3c2)nc(S(C)(=O)=O)n1,Kd,[5],2810 nM
same,ΔTm,[7],1.67 °C
same,IC50,[2],698 nM
same,ΔTm,[19],2.4 °C
same,ΔTm,[26],1.29 °C
same,ΔTm,[33],1.22 °C
CN(C)CCCOc1ccc(-c2cc(NCCCn3cccn3)nc(S(C)(=O)=O)n2)cc1,Kd,[1],120 nM
same,Kd,[34],200 nM
CNc1cc(-c2cccc3ncccc23)nc(S(C)(=O)=O)n1,IC50,[2],1700 nM
Cc1c(Nc2ccc(S(=O)(=O)N3CCN(C)CC3)cc2F)nc2ccc(-c3cnn(C4CC4)c3)cn2c1=O,Kd,[1],71 nM
CNc1cc(-c2ccc3c(ccn3CCN(C)C)c2)nc(S(C)(=O)=O)n1,IC50,[2],36.9 nM
CCNc1cc(-c2ccc3c(ccn3CCCN(C)C)c2)nc(S(C)(=O)=O)n1,IC50,[2],28.8 nM
CNc1cc(-c2ccc3c(ccn3CCCN(C)C)c2)nc(S(C)(=O)=O)n1,IC50,[2],32.7 nM
CCCNc1cc(-c2ccc3c(ccn3CCCN(C)C)c2)nc([S+](C)[O-])n1 (stereo not drawn),IC50,[2],145 nM
CNc1cc(-c2ccccc2)nc(S(C)(=O)=O)n1,IC50,[2],7800 nM
